Legend:
Test in all cases: BIO3-BIO1 mutant enzyme activity in the presence of herbicide, percentage inhibition (fluorometric DAPA assay)
Format in all cases: biochemical
Settings in all cases: read-out: percentage inhibition
[1] = target: T1, Arabidopsis thaliana BIO3-BIO1 (BioDA) mutants (Arabidopsis thaliana, UniProt B0F481, A609V)
T1 construct: with the predicted N-terminal mitochondrial transit peptide removed; 6xHis-tag (N); thrombin cleavage site (N); made in house; host or cells: E. coli BL21 (DE3) bioA
T1 sequence (B0F481 23-833 A609V): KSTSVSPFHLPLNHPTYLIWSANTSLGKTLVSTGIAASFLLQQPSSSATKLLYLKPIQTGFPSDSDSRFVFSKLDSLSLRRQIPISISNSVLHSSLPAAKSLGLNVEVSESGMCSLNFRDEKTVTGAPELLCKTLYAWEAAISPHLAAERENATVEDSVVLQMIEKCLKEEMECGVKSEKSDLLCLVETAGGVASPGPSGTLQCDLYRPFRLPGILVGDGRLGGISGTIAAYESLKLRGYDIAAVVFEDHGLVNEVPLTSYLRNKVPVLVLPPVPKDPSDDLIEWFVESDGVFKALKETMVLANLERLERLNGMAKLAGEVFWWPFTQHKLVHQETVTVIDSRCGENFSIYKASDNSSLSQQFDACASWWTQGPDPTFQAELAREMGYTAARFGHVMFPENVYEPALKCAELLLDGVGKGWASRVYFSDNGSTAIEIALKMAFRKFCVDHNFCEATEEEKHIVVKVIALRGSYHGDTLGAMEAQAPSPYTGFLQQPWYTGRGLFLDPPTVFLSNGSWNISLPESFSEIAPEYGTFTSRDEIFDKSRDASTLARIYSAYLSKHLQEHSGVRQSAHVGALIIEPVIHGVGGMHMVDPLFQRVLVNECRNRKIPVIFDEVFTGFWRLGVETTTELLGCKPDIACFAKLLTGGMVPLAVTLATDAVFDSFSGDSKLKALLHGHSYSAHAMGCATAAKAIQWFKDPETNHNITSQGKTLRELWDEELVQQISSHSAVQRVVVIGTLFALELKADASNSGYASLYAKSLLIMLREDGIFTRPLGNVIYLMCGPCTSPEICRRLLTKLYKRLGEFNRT
Excerpt: (§1) A pet-24 plasmid containing a DNA sequence encoding each identified variant mutant of BIO3-BIO1 derived from Arabidopsis thaliana from example 5 above, as shown in Table 13 below and as shown in full in SEQ ID NOs: 15 to 155, codon-optimised for expression in E. coli, with an N-terminal 6×His-tag and thrombin cleavage site and under control of a T7 promoter, and was synthesised by Twist Bioscience, in a similar manner to SEQ ID NO:311. These plasmids were then expressed in E. coli BL21 (DE3) bioA with 50 μg/mL kanamycin and 25 μg/mL chloramphenicol selection. Overnight cultures grown at 37° C. were used to inoculate 8×500 mL AIM in shake flasks at a ratio of 1:100. Cultures were grown at 37° C., 200 rpm for 3.5 hours and then overnight at 20° C. Cells were harvested by centrifugation for 30 minutes at 10 000 g. Cells were stored at −80° C. until extraction. 30 g of cell pellet from was thawed in 120 mL of IMAC buffer A (20 mM HEPES pH7.5, 25 mM imidazole, 500 mM sodium chloride, 0.15 mM pyridoxal phosphate, 0.5 mM TCEP, 1× complete Protease Inhibitor Tablet (Roche)). The resuspension was passed through a cell disrupter at 18 000 PSI and centrifuged at 50 000 g for 25 minutes at 4° C. The His-tagged BIO3-BIO1 protein was purified from the extract supernatant on an AKTA avant chromatography system (Cytiva) using a HisTrap FF column and eluted in IMAC buffer B ((20 mM HEPES pH7.5, 500 mM imidazole, 500 mM sodium chloride, 0.15 mM pyridoxal phosphate, 0.5 mM TCEP) followed by SEC using a HiLoad 26/60 Superdex200 column in SEC buffer (25 mM HEPES pH7.5, 150 mM sodium chloride, 0.15 mM pyridoxal phosphate, 0.5 mM TCEP). Protein concentration was measured and calculated using the absorbance at 280 nm. Extracts were diluted 1 in 4 and 10 uL was analysed by SDS PAGE.
(§2) To measure BIO3-BIO1 mutant enzyme activity in the presence of herbicide, herbicides were incubated with 20 μL of enzyme mix (100 mM EPPS pH 8.6, 0.1 mM pyridoxal phosphate, 0.1 mg/mL BSA, 50 nM BIO3-BIO1 enzyme) for 10 minutes at 20° C. in a well of a 96-well half-area black plate, followed by the addition of 20 μL of substrate mix (final concentration of 100 mM EPPS pH 8.6, 0.1 mM pyridoxal phosphate, 0.1 mg/mL BSA, 100 μM spermidine, 20 μM KAPA, 100 mM NaCO3) and further incubation for 75 minutes at 20° C. The reaction was terminated by the addition of 50 μL of derivatisation mix (final concentration of 250 mM borate NaOH pH 9.4, 3.6 mM o-phthalaldehyde, 7 mM β-mercaptoethanol, 17% (v/v) ethanol, 3.6% (v/v) methanol). The fluorescent product produced by the reaction of DAPA with o-phthalaldehyde and 7 mM β-mercaptoethanol was measured at 470 nm after excitation at 410 nm. The percentage inhibition was calculated as the activity in the presence of one of three concentrations of each herbicide compound A to M (note that the compounds labelled as A to M are identified hereinabove in the relevant section of the description) as a percentage of the activity in DMSO (Table 12 and 13). The percentage activity versus WT was also calculated and is shown in Table 13 and 14 (NT indicates mutation not tested in table 13, note that these mutations are tested at different compound concentrations for compounds L, M and C, and the results are shown in table 14).

[2] = target: T2, Arabidopsis thaliana BIO3-BIO1 (BioDA) mutants (Arabidopsis thaliana, UniProt B0F481, C388T)
T2 construct: with the predicted N-terminal mitochondrial transit peptide removed; 6xHis-tag (N); thrombin cleavage site (N); made in house; host or cells: E. coli BL21 (DE3) bioA
T2 sequence (B0F481 23-833 C388T): as the sequence (B0F481 23-833 A609V) above, with C366T, V587A counted along it
Excerpt: as §1, §2

[3] = target: T3, Arabidopsis thaliana BIO3-BIO1 (BioDA) mutants (Arabidopsis thaliana, UniProt B0F481, F420I)
T3 construct: with the predicted N-terminal mitochondrial transit peptide removed; 6xHis-tag (N); thrombin cleavage site (N); made in house; host or cells: E. coli BL21 (DE3) bioA
T3 sequence (B0F481 23-833 F420I): as the sequence (B0F481 23-833 A609V) above, with F398I, V587A counted along it
Excerpt: as §1, §2

[4] = target: T4, Arabidopsis thaliana BIO3-BIO1 (BioDA) mutants (Arabidopsis thaliana, UniProt B0F481, P529A)
T4 construct: with the predicted N-terminal mitochondrial transit peptide removed; 6xHis-tag (N); thrombin cleavage site (N); made in house; host or cells: E. coli BL21 (DE3) bioA
T4 sequence (B0F481 23-833 P529A): as the sequence (B0F481 23-833 A609V) above, with P507A, V587A counted along it
Excerpt: as §1, §2

[5] = target: T5, Arabidopsis thaliana BIO3-BIO1 (BioDA) mutants (Arabidopsis thaliana, UniProt B0F481, A609I)
T5 construct: with the predicted N-terminal mitochondrial transit peptide removed; 6xHis-tag (N); thrombin cleavage site (N); made in house; host or cells: E. coli BL21 (DE3) bioA
T5 sequence (B0F481 23-833 A609I): as the sequence (B0F481 23-833 A609V) above, with V587I counted along it
Excerpt: as §1, §2

[6] = target: T6, Arabidopsis thaliana BIO3-BIO1 (BioDA) mutants (Arabidopsis thaliana, UniProt B0F481, G700A)
T6 construct: with the predicted N-terminal mitochondrial transit peptide removed; 6xHis-tag (N); thrombin cleavage site (N); made in house; host or cells: E. coli BL21 (DE3) bioA
T6 sequence (B0F481 23-833 G700A): as the sequence (B0F481 23-833 A609V) above, with V587A, G678A counted along it
Excerpt: as §1, §2

[7] = target: T7, Arabidopsis thaliana BIO3-BIO1 (BioDA) mutants (Arabidopsis thaliana, UniProt B0F481, T512Q)
T7 construct: with the predicted N-terminal mitochondrial transit peptide removed; 6xHis-tag (N); thrombin cleavage site (N); made in house; host or cells: E. coli BL21 (DE3) bioA
T7 sequence (B0F481 23-833 T512Q): as the sequence (B0F481 23-833 A609V) above, with T490Q, V587A counted along it
Excerpt: as §1, §2

[8] = target: T8, Arabidopsis thaliana BIO3-BIO1 (BioDA) mutants (Arabidopsis thaliana, UniProt B0F481, S509T)
T8 construct: with the predicted N-terminal mitochondrial transit peptide removed; 6xHis-tag (N); thrombin cleavage site (N); made in house; host or cells: E. coli BL21 (DE3) bioA
T8 sequence (B0F481 23-833 S509T): as the sequence (B0F481 23-833 A609V) above, with S487T, V587A counted along it
Excerpt: as §1, §2

[9] = target: T9, Arabidopsis thaliana BIO3-BIO1 (BioDA) mutants (Arabidopsis thaliana, UniProt B0F481, V354L)
T9 construct: with the predicted N-terminal mitochondrial transit peptide removed; 6xHis-tag (N); thrombin cleavage site (N); made in house; host or cells: E. coli BL21 (DE3) bioA
T9 sequence (B0F481 23-833 V354L): as the sequence (B0F481 23-833 A609V) above, with V332L, V587A counted along it
Excerpt: as §1, §2

[10] = target: T10, Arabidopsis thaliana BIO3-BIO1 (BioDA) mutants (Arabidopsis thaliana, UniProt B0F481, W392C)
T10 construct: with the predicted N-terminal mitochondrial transit peptide removed; 6xHis-tag (N); thrombin cleavage site (N); made in house; host or cells: E. coli BL21 (DE3) bioA
T10 sequence (B0F481 23-833 W392C): as the sequence (B0F481 23-833 A609V) above, with W370C, V587A counted along it
Excerpt: as §1, §2

[11] = target: T11, Arabidopsis thaliana BIO3-BIO1 (BioDA) mutants (Arabidopsis thaliana, UniProt B0F481, W392D)
T11 construct: with the predicted N-terminal mitochondrial transit peptide removed; 6xHis-tag (N); thrombin cleavage site (N); made in house; host or cells: E. coli BL21 (DE3) bioA
T11 sequence (B0F481 23-833 W392D): as the sequence (B0F481 23-833 A609V) above, with W370D, V587A counted along it
Excerpt: as §1, §2

[12] = target: T12, Arabidopsis thaliana BIO3-BIO1 (BioDA) mutants (Arabidopsis thaliana, UniProt B0F481, Q517H)
T12 construct: with the predicted N-terminal mitochondrial transit peptide removed; 6xHis-tag (N); thrombin cleavage site (N); made in house; host or cells: E. coli BL21 (DE3) bioA
T12 sequence (B0F481 23-833 Q517H): as the sequence (B0F481 23-833 A609V) above, with Q495H, V587A counted along it
Excerpt: as §1, §2

Structure (SMILES)	inhibition at 0.2 µM [7] [%]	inhibition at 1 µM [7] [%]	inhibition at 5 µM [7] [%]	inhibition at 0.2 µM [1] [%]	inhibition at 1 µM [1] [%]	inhibition at 5 µM [1] [%]	inhibition at 0.2 µM [2] [%]	inhibition at 1 µM [2] [%]	inhibition at 5 µM [2] [%]	inhibition at 0.2 µM [3] [%]	inhibition at 1 µM [3] [%]	inhibition at 5 µM [3] [%]	inhibition at 1 µM [8] [%]	inhibition at 1 µM [4] [%]	inhibition at 1 µM [5] [%]	inhibition at 1 µM [9] [%]	inhibition at 1 µM [6] [%]	inhibition at 1 µM [10] [%]	inhibition at 1 µM [11] [%]	inhibition at 1 µM [12] [%]	further results
CCn1c(Cn2ccc(C(F)(F)F)n2)cc(=O)c(C(=O)O)c1-c1ccc(Cl)c(Cl)c1 [Compound L, 2-(3,4-dichlorophenyl)-1-ethyl-4-oxo-6-[[3-(trifluoromethyl)pyrazol-1-yl]methyl]pyridine-3-carboxylic acid]																					inhibition at 0.01 µM [1]: 0%; inhibition at 0.075 µM [1]: 0%; inhibition at 0.5 µM [1]: 0%; inhibition at 0.01 µM [2]: 19%; inhibition at 0.075 µM [2]: 58%; inhibition at 0.5 µM [2]: 92%; inhibition at 0.01 µM [3]: 0%; inhibition at 0.075 µM [3]: 1%; inhibition at 0.5 µM [3]: 62%; inhibition at 0.01 µM [4]: 0%; inhibition at 0.075 µM [4]: 0%; inhibition at 0.5 µM [4]: 60%; inhibition at 0.01 µM [5]: 29%; inhibition at 0.075 µM [5]: 20%; inhibition at 0.5 µM [5]: 0%; inhibition at 0.01 µM [6]: 6%; inhibition at 0.075 µM [6]: 6%; inhibition at 0.5 µM [6]: 3%
CCn1c(C)c(-c2ccc(F)cc2F)c(=O)c(C(=O)O)c1-c1ccc(Cl)c(Cl)c1 [Compound C, 2-(3,4-dichlorophenyl)-5-(2,4-difluorophenyl)-1-ethyl-6-methyl-4-oxo-pyridine-3-carboxylic acid]	53	96	100	0	11	58	49	78	95	0	55	88	50	25	24	32	7	55	59	44	inhibition at 0.2 µM [8]: 5%; inhibition at 5 µM [8]: 89%; inhibition at 0.2 µM [4]: 4%; inhibition at 5 µM [4]: 71%; inhibition at 0.2 µM [5]: 7%; inhibition at 5 µM [5]: 42%; inhibition at 0.2 µM [9]: 0%; inhibition at 5 µM [9]: 86%; inhibition at 0.2 µM [6]: 4%; inhibition at 5 µM [6]: 28%; inhibition at 0.2 µM [10]: 20%; inhibition at 5 µM [10]: 87%; inhibition at 0.2 µM [11]: 46%; inhibition at 5 µM [11]: 91%; inhibition at 0.2 µM [12]: 11%; inhibition at 5 µM [12]: 77%
CCn1c(-c2ccc(Cl)c(Cl)c2)c(C(=O)O)c(=O)c2cc(F)ccc21 [Compound M, 2-(3,4-dichlorophenyl)-1-ethyl-6-fluoro-4-oxo-quinoline-3-carboxylic acid]	49	91	99	22	44	75	48	78	95	0	45	84	69	25	0	43	8	17	37	37	inhibition at 0.2 µM [8]: 9%; inhibition at 5 µM [8]: 95%; inhibition at 0.2 µM [4]: 0%; inhibition at 5 µM [4]: 68%; inhibition at 0.2 µM [5]: 2%; inhibition at 5 µM [5]: 78%; inhibition at 0.2 µM [9]: 4%; inhibition at 5 µM [9]: 78%; inhibition at 0.2 µM [6]: 7%; inhibition at 5 µM [6]: 6%; inhibition at 0.2 µM [10]: 0%; inhibition at 5 µM [10]: 27%; inhibition at 0.2 µM [11]: 14%; inhibition at 5 µM [11]: 81%; inhibition at 0.2 µM [12]: 6%; inhibition at 5 µM [12]: 71%
CCOC(=O)c1nn(-c2ccc3c(c2)OC(F)(F)C(F)(F)O3)c2cccc(C(C)=O)c2c1=O [Compound A, ethyl 5-acetyl-4-oxo-1-(2,2,3,3-tetrafluoro-1,4-benzodioxin-6-yl)cinnoline-3-carboxylate]		49			5			31			0		77	0	24	1	0	42	55	0	
